Experiments:
Type in all cases: biochemical
[1] = target: Thermus aquaticus T-Rex FRET fusion, initial construct #11, mKOk-Rex(A)-cpmEGFP(173/174)-Rex(B), SEQ ID NO: 171 (Thermus aquaticus, UniProt Q9X2V5, E116G/F189I/K117M/K204T/K47E/R46D/R58D/S30A/Y98W); test: FRET response (emission spectra) of purified initial construct #11 in absence or presence of 40 uM NADH; set-up: key: Good response: Constructs with very clear and robust spectra separation; Poor response: those with noticeable but small spectra separation; No response: those having no spectra separation
Procedure: (§1) 16 initial FRET constructs (See Table 3) were constructed using expression vector pET28c with a T7 promoter and lac operator and expressed in E. coli. Cells were collected and lysed using a commercially-available lysis buffer. Proteins of interest were isolated from the lysates using Ni-NTA magnetic beads. Eluted proteins were subjected to buffer exchange and final protein concentrating. To test performance of the initial FRET constructs, their emission spectra was recorded on a plate reader in absence or presence of 40 uM NADH. Resulting emission spectra with or without the ligand were normalized and overlaid for each construct. Constructs with very clear and robust spectra separation were labeled as having “good response”, those with noticeable but small spectra separation were labeled as having “poor response”, and finally those having no spectra separation were labeled as having “no response”.

[2] = target: T1, Thermus aquaticus T-Rex FRET fusion, initial construct #5, mKOk-Rex(78-189)-cpmEGFP(173/174)-Rex(190-211)-Rex(78-211), SEQ ID NO: 165 (Thermus aquaticus, UniProt Q9X2V5, INS189[…]); test: FRET response (emission spectra) of purified initial construct #5 in absence or presence of 40 uM NADH; set-up: key: Good response: Constructs with very clear and robust spectra separation; Poor response: those with noticeable but small spectra separation; No response: those having no spectra separation
T1 construct: His-tag purified from E. coli
Procedure: as §1

[3] = target: Thermus aquaticus T-Rex FRET fusion, initial construct #10, Rex(A)-cpmEGFP(145/146)-Rex(B)-mKOk, SEQ ID NO: 170 (Thermus aquaticus, UniProt Q9X2V5, E116G/F189I/K117M/K204T/K47E/R46D/R58D/S30A/Y98W); test: FRET response (emission spectra) of purified initial construct #10 in absence or presence of 40 uM NADH; set-up: key: Good response: Constructs with very clear and robust spectra separation; Poor response: those with noticeable but small spectra separation; No response: those having no spectra separation
Procedure: as §1

[4] = target: T2, Thermus aquaticus T-Rex FRET fusion, initial construct #7, mKOk-Rex(78-211)-Rex(78-189)-cpmEGFP(173/174)-Rex(190-211), SEQ ID NO: 167 (Thermus aquaticus, UniProt Q9X2V5, INS189[…]); test: FRET response (emission spectra) of purified initial construct #7 in absence or presence of 40 uM NADH; set-up: key: Good response: Constructs with very clear and robust spectra separation; Poor response: those with noticeable but small spectra separation; No response: those having no spectra separation
T2 construct: His-tag purified from E. coli
Procedure: as §1

[5] = target: Thermus aquaticus T-Rex FRET fusion, initial construct #12, Rex(A)-cpmEGFP(173/174)-Rex(B)-mKOk, SEQ ID NO: 172 (Thermus aquaticus, UniProt Q9X2V5, E116G/F189I/K117M/K204T/K47E/R46D/R58D/S30A/Y98W); test: FRET response (emission spectra) of purified initial construct #12 in absence or presence of 40 uM NADH; set-up: key: Good response: Constructs with very clear and robust spectra separation; Poor response: those with noticeable but small spectra separation; No response: those having no spectra separation
Procedure: as §1

[6] = target: Thermus aquaticus T-Rex FRET biosensor construct #14 (Rex(A)-mEGFP-Rex(B)-mKOk, SEQ ID NO: 174), library variant 4-A2, SEQ ID NO: 19 (Thermus aquaticus, UniProt Q9X2V5, E116G/F189I/K117M/K47E/R46D/R58D/S30A/Y98W); test: Signal window in bacterial lysates, FRET ratio in presence or absence of 200 uM NADH (Table 2); conditions: clone 4-A2, SEQ ID NO: 19
Excerpt: In specific embodiments, the fusion protein comprises the amino acid sequence selected from the group consisting of SEQ ID NO: 13-93, 95-154, and 191-193; the sequences are provided in Table 2 and the examples.
Protein library DNA was generated following cloning that assembled pieces of DNA that were generated using PCRs with mixtures of primers. DNA was transformed into E. coli, and the first round of protein library expression was done in bacterial colonies on agar plates. The colonies, each expressing different library members, were imaged, and then classified into groups based on their FRET ratio signal. Colonies from different groups were inoculated into 96-deep-well plates for further protein expression in liquid culture. The original construct that was used to generate the library (e.g., construct #14 in Table 2) was also inoculated on the same plates, along with non-expressing bacteria. The latter served as a negative control.

[7] = target: T3, Thermus aquaticus T-Rex FRET fusion, initial construct #1, mKOk-Rex(78-189)-cpmEGFP(145/146)-Rex(190-211)-Rex(78-211), SEQ ID NO: 161 (Thermus aquaticus, UniProt Q9X2V5, INS189[…]); test: FRET response (emission spectra) of purified initial construct #1 in absence or presence of 40 uM NADH; set-up: key: Good response: Constructs with very clear and robust spectra separation; Poor response: those with noticeable but small spectra separation; No response: those having no spectra separation
T3 construct: His-tag purified from E. coli (pET28c)
Procedure: as §1

[8] = target: T4, Thermus aquaticus T-Rex FRET fusion, initial construct #3, mKOk-Rex(78-211)-Rex(78-189)-cpmEGFP(145/146)-Rex(190-211), SEQ ID NO: 163 (Thermus aquaticus, UniProt Q9X2V5, INS189[…]); test: FRET response (emission spectra) of purified initial construct #3 in absence or presence of 40 uM NADH; set-up: key: Good response: Constructs with very clear and robust spectra separation; Poor response: those with noticeable but small spectra separation; No response: those having no spectra separation
T4 construct: His-tag purified from E. coli
Procedure: as §1

[9] = target: Thermus aquaticus T-Rex FRET fusion, initial construct #9, mKOk-Rex(A)-cpmEGFP(145/146)-Rex(B), SEQ ID NO: 169 (Thermus aquaticus, UniProt Q9X2V5, E116G/F189I/K117M/K204T/K47E/R46D/R58D/S30A/Y98W); test: FRET response (emission spectra) of purified initial construct #9 in absence or presence of 40 uM NADH; set-up: key: Good response: Constructs with very clear and robust spectra separation; Poor response: those with noticeable but small spectra separation; No response: those having no spectra separation
Procedure: as §1

[10] = target: Thermus aquaticus T-Rex FRET fusion, initial construct #16, Rex(A)-mKOk-Rex(B)-mEGFP, SEQ ID NO: 176 (Thermus aquaticus, UniProt Q9X2V5, E116G/F189I/K117M/K204T/K47E/R46D/R58D/S30A/Y98W); test: FRET response (emission spectra) of purified initial construct #16 in absence or presence of 40 uM NADH; set-up: key: Good response: Constructs with very clear and robust spectra separation; Poor response: those with noticeable but small spectra separation; No response: those having no spectra separation
Procedure: as §1

NC(=O)C1=CN([C@@H]2O[C@H](COP(=O)(O)OP(=O)(O)OC[C@H]3O[C@@H](n4cnc5c(N)ncnc54)[C@H](O)[C@@H]3O)[C@@H](O)[C@H]2O)C=CC1 [NADH]
FRET response to NADH [1]: Poor response
FRET response to NADH [2]: No response
FRET response to NADH [3]: Good response
FRET response to NADH [4]: No response
FRET response to NADH [5]: Good response
Signal window (ex mode), measured in lysates [6]: 0.32
FRET response to NADH [7]: No response
FRET response to NADH [8]: No response
FRET response to NADH [9]: No response
FRET response to NADH [10]: Good response
